Patent US20150031668A1, “CHROMAN DERIVATIVES AS TRPM8 INHIBITORS” (AMGEN INC., priority 2013, published 2015)
Structures can show the parent of a compound that is named as a salt.

Molecular target: T1, human TRPM8 (Homo sapiens, UniProt Q7Z2W7)
T1 construct: expressed in transfected cells; host or cells: Chinese hamster ovary (CHO) cells, T-REx tetracycline-inducible expression system (Invitrogen); co-transfected with pcDNA3.1 aequorin
Assay: Luminescence readout assay for measuring intracellular calcium (aequorin, CHO cells expressing human TRPM8; icilin, L-menthol or cold activation)
Type: cell-based
Settings: CHO cells expressing human TRPM8, icilin activation (1 μM), aequorin luminescence; read-out: hTRPM8 IC50
Protocol: Luminescence Readout Assay for Measuring Intracellular Calcium
A stable Chinese hamster ovary cell line expressing human TRPM8 was generated using tetracycline inducible T-REx™ expression system from Invitrogen, Inc. (Carlsbad, Calif.). […] Twenty four hours before the assay, cells were seeded in 96-well plates and TRPM8 expression was induced with 0.5 μg/ml tetracycline. On the day of the assay, culture media was removed and cells were incubated with assay buffer
Potential antagonists were added 2.5 min prior to the addition of agonist, 1 μM icilin, 100 μM L-menthol, or 1 min prior to the addition of cold buffer (<10° C.). The luminescence was measured by a CCD camera based FLASH-luminometer built by Amgen, Inc. A cooling device attached to FLASH luminometer was used for cold activation.

T1 sequence (Q7Z2W7 whole entry): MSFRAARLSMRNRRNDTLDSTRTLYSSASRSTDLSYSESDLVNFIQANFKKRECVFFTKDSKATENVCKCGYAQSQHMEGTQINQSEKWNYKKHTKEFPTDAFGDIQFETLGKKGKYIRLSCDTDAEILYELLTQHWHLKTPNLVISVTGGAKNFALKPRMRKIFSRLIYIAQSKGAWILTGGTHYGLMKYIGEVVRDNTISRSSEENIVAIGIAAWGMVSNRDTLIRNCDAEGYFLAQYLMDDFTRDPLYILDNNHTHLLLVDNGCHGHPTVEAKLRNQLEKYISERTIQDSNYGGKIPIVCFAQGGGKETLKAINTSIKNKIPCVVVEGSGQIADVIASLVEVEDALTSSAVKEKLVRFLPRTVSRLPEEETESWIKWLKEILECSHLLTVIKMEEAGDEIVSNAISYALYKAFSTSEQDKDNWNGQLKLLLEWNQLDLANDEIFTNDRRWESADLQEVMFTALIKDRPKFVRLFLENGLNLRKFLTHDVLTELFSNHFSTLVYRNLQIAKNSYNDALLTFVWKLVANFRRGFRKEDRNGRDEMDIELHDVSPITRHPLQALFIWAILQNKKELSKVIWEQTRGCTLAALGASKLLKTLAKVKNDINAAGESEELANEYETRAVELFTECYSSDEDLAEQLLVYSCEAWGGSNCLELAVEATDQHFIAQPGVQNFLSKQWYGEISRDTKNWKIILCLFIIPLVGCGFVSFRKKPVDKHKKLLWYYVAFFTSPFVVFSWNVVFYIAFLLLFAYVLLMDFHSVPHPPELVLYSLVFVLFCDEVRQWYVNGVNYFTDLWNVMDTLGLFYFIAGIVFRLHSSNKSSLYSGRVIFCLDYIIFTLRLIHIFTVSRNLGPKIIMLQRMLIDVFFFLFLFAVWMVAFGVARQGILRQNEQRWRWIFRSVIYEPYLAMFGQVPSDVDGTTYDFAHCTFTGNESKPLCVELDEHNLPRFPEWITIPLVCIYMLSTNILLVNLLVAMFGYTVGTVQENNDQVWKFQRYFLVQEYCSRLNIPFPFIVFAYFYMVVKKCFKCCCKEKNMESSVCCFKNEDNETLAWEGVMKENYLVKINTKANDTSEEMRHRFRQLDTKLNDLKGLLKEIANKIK

| Structure (SMILES) | IC50 [nM] |
| --- | --- |
| COc1ncccc1-c1ccc([C@@]2(NC(=O)c3ccc(F)cc3)CCOc3cccnc32)cc1 [Example 131, (S)-4-fluoro-N-(4-(4-(2-methoxypyridin-3-yl)phenyl)-3,4-dihydro-2H-pyrano[3,2-b]pyridin-4-yl)benzamide] | 113 |
| O=C(N[C@]1(c2ccc(OC(F)(F)F)cc2)CCOc2cccnc21)c1ccsn1 [Example 232, (S)-N-(4-(4-(trifluoromethoxy)phenyl)-3,4-dihydro-2H-pyrano[3,2-b]pyridin-4-yl)isothiazole-3-carboxamide formate] | 25.8 |
| COC(=O)c1ccccc1NC(=O)N[C@]1(c2ccc(OC(F)(F)F)c(F)c2)CCOc2cccnc21 [Example 86, (S)-methyl 2-(3-(4-(3-fluoro-4-(trifluoromethoxy)phenyl)-3,4-dihydro-2H-pyrano[3,2-b]pyridin-4-yl)ureido)benzoate] | 19 |
| NC(=O)c1cc(-c2ccc([C@@]3(NC(=O)c4ccc(F)cc4)CCOc4cccnc43)cc2)ccc1Cl [Example 123, (S)-4-chloro-4′-(4-(4-fluorobenzamido)-3,4-dihydro-2H-pyrano[3,2-b]pyridin-4-yl)-[1,1′-biphenyl]-3-carboxamide] | 3560 |
| O=C(N[C@]1(c2ccc(OC(F)(F)F)cc2)CCOc2cccnc21)c1cccc(N2CCCC2=O)c1 [Example 277, (S)-3-(2-oxopyrrolidin-1-yl)-N-(4-(4-(trifluoromethoxy)phenyl)-3,4-dihydro-2H-pyrano[3,2-b]pyridin-4-yl)benzamide formate] | 85 |
| O=C(N[C@]1(c2ccc(-c3ccoc3)cc2)CCOc2cccnc21)c1ccc(F)cc1 [Example 145, (S)-4-fluoro-N-(4-(4-(furan-3-yl)phenyl)-3,4-dihydro-2H-pyrano[3,2-b]pyridin-4-yl)benzamide] | 70 |
| O=C(N[C@]1(c2ccc(OC(F)(F)F)cc2)CCOc2cccnc21)c1cscn1 [Example 231, (S)-N-(4-(4-(trifluoromethoxy)phenyl)-3,4-dihydro-2H-pyrano[3,2-b]pyridin-4-yl)thiazole-4-carboxamide formate] | 45.2 |
| Cn1ncc2c(C(=O)N[C@]3(c4ccc(OC(F)(F)F)cc4)CCOc4cccnc43)cccc21 [Example 261, (S)-1-methyl-N-(4-(4-(trifluoromethoxy)phenyl)-3,4-dihydro-2H-pyrano[3,2-b]pyridin-4-yl)-1H-indazole-4-carboxamide formate] | 32 |
| O=C(Nc1ccncc1)N[C@]1(c2ccc(OC(F)(F)F)c(F)c2)CCOc2cccnc21 [Example 96, (S)-1-(4-(3-fluoro-4-(trifluoromethoxy)phenyl)-3,4-dihydro-2H-pyrano[3,2-b]pyridin-4-yl)-3-(pyridin-4-yl)urea] | 6 |
| Cc1nc(-c2cccc(C(=O)N[C@]3(c4ccc(OC(F)(F)F)cc4)CCOc4cccnc43)c2)no1 [Example 275, (S)-3-(5-methyl-1,2,4-oxadiazol-3-yl)-N-(4-(4-(trifluoromethoxy)phenyl)-3,4-dihydro-2H-pyrano[3,2-b]pyridin-4-yl)benzamide formate] | 34 |
| O=C(N[C@]1(c2ccc(OC(F)(F)F)c(F)c2)CCOc2cccnc21)N1CCCC1 [Example 104, (S)-N-(4-(3-fluoro-4-(trifluoromethoxy)phenyl)-3,4-dihydro-2H-pyrano[3,2-b]pyridin-4-yl)pyrrolidine-1-carboxamide] | 85 |
| O=C(N[C@]1(c2ccc(-c3ccccc3)cc2)CCOc2cccnc21)c1ccc(F)cc1 [Example 113, (S)—N-(4-([1,1′-biphenyl]-4-yl)-3,4-dihydro-2H-pyrano[3,2-b]pyridin-4-yl)-4-fluorobenzamide] | 53 |
| Cn1cc2cccc(C(=O)N[C@]3(c4ccc(OC(F)(F)F)cc4)CCOc4cccnc43)c2n1 [Example 266, (S)-2-methyl-N-(4-(4-(trifluoromethoxy)phenyl)-3,4-dihydro-2H-pyrano[3,2-b]pyridin-4-yl)-2H-indazole-7-carboxamide formate] | 36 |
| O=C(N[C@]1(c2ccc(-c3ccccc3O)cc2)CCOc2cccnc21)c1ccc(F)cc1 [Example 120, (S)-4-fluoro-N-(4-(2′-hydroxy-[1,1′-biphenyl]-4-yl)-3,4-dihydro-2H-pyrano[3,2-b]pyridin-4-yl)benzamide] | 524 |
| O=C(N[C@]1(c2ccc(OC(F)(F)F)c(F)c2)CCOc2cccnc21)c1cscn1 [Example 198, (S)-N-(4-(3-fluoro-4-(trifluoromethoxy)phenyl)-3,4-dihydro-2H-pyrano[3,2-b]pyridin-4-yl) thiazole-4-carboxamide] | 35 |
| O=C(N[C@]1(c2ccc(OC(F)(F)F)c(F)c2)CCOc2cccnc21)c1ncco1 [Example 189, (S)-N-(4-(3-fluoro-4-(trifluoromethoxy)phenyl)-3,4-dihydro-2H-pyrano[3,2-b]pyridin-4-yl) oxazole-2-carboxamide] | 134 |
| O=S(=O)(N[C@]1(c2ccc(OC(F)(F)F)c(F)c2)CCOc2cccnc21)c1cccnc1 [Example 77, (S)—N-(4-(3-fluoro-4-(trifluoromethoxy)phenyl)-3,4-dihydro-2H-pyrano[3,2-b]pyridin-4-yl)pyridine-3-sulfonamide 2,2,2-trifluoroacetate] | 1340 |
| Nc1ccc(-c2ccc([C@@]3(NC(=O)c4ccc(F)cc4)CCOc4cccnc43)cc2)cc1 [Example 147, (S)-N-(4-(4′-amino-[1,1′-biphenyl]-4-yl)-3,4-dihydro-2H-pyrano[3,2-b]pyridin-4-yl)-4-fluorobenzamide] | 1530 |
| CCOC(=O)c1ncc(C(=O)N[C@]2(c3ccc(OC(F)(F)F)c(F)c3)CCOc3cccnc32)[nH]1 [Example 162] | 92 |
| Cn1cnc(C(=O)N[C@]2(c3ccc(OC(F)(F)F)c(F)c3)CCOc3cccnc32)c1 [Example 179, (S)-N-(4-(3-fluoro-4-(trifluoromethoxy)phenyl)-3,4-dihydro-2H-pyrano[3,2-b]pyridin-4-yl)-1-methyl-1H-imidazole-4-carboxamide] | 305 |
| Cc1ccc(-c2ccc([C@@]3(NC(=O)c4ccc(F)cc4)CCOc4cccnc43)cc2)cc1N [Example 148, (S)-N-(4-(3′-amino-4′-methyl-[1,1′-biphenyl]-4-yl)-3,4-dihydro-2H-pyrano[3,2-b]pyridin-4-yl)-4-fluorobenzamide] | 770 |
| O=C(N[C@]1(c2ccc(-c3cnc(Cl)nc3)cc2)CCOc2cccnc21)c1ccc(F)cc1 [Example 139, (S)-N-(4-(4-(2-chloropyrirnidin-5-yl)phenyl)-3,4-dihydro-2H-pyrano[3,2-b]pyridin-4-yl)-4-fluorobenzamide] | 122 |

More lines, now with the values ahead:

| IC50 [nM] | Structure (SMILES) |
| --- | --- |
| 12 | O=C(N[C@]1(c2ccc(C(F)(F)F)c(F)c2)CCOc2cccnc21)c1ccccc1 (single isomer, unassigned) [Example 19] |
| 3700 | O=C(N[C@]1(c2ccc(OC(F)(F)F)c(F)c2)CCOc2cccnc21)c1c[nH]c(C(=O)O)c1 [Example 320, (S)-4-((4-(3-fluoro-4-(trifluoro-methoxy)phenyl)-3,4-dihydro-2H-pyrano[3,2-b]pyridin-4-yl)carbamoyl)-1H-pyrrole-2-carboxylic acid] |
| 115 | Cn1cc(C(=O)N[C@]2(c3ccc(OC(F)(F)F)c(F)c3)CCOc3cccnc32)cc1C(=O)O [Example 299, (S)-4-((4-(3-fluoro-4-(trifluoromethoxy)phenyl)-3,4-dihydro-2H-pyrano[3,2-b]pyridin-4-yl)carbamoyl)-1-methyl-1H-pyrrole-2-carboxylic acid] |
| 36 | COC(=O)c1ccc(NC(=O)N[C@]2(c3ccc(OC(F)(F)F)c(F)c3)CCOc3cccnc32)cc1 [Example 90, (S)-methyl 4-(3-(4-(3-fluoro-4-(trifluoromethoxy)phenyl)-3,4-dihydro-2H-pyrano[3,2-b]pyridin-4-yl)ureido)benzoate] |
| 74 | O=C(N[C@]1(c2ccc(OC(F)(F)F)c(F)c2)CCOc2cccnc21)c1ccc(Br)s1 [Example 203, (S)-5-bromo-N-(4-(3-fluoro-4-(trifluoromethoxy)phenyl)-3,4-dihydro-2H-pyrano[3,2-b]pyridin-4-yl) thiophene-2-carboxamide] |
| 12 | O=C(N[C@]1(c2ccc(OC(F)(F)F)c(F)c2)CCOc2cccnc21)c1ccc(C(=O)O)c(C2CC2)c1 [Example 300, (S)-2-cyclopropyl-4-((4-(3-fluoro-4-(trifluoromethoxy)phenyl)-3,4-dihydro-2H-pyrano[3,2-b]pyridin-4-yl)carbamoyl)benzoic acid] |
| 16 | O=C(N[C@]1(c2ccc(OC(F)(F)F)c(F)c2)CCOc2cccnc21)c1ccc2nccn2c1 [Example 52, (S)-N-(4-(3-fluoro-4-(trifluoromethoxy)phenyl)-3,4-dihydro-2H-pyrano[3,2-b]pyridin-4-yl)imidazo[1,2-a]pyridine-6-carboxamide] |
| 55 | CNC(=O)c1cccc(C(=O)N[C@]2(c3ccc(OC(F)(F)F)c(F)c3)CCOc3cccnc32)c1 [Example 309, (S)—N1-(4-(3-fluoro-4-(trifluoromethoxy)phenyl)-3,4-dihydro-2H-pyrano[3,2-b]pyridin-4-yl)-N3-methylisophthalamide] |
| 17 | Cc1cc(C(=O)N[C@]2(c3ccc(C(F)(F)F)c(F)c3)CCOc3cccnc32)ccc1C(=O)O [Example 287, (S)-4-((4-(3-fluoro-4-(trifluoromethyl)phenyl)-3,4-dihydro-2H-pyrano[3,2-b]pyridin-4-yl)carbamoyl)-2-methylbenzoic acid] |
| 209 | O=C(O)c1cnc(C(=O)N[C@]2(c3ccc(OC(F)(F)F)c(F)c3)CCOc3cccnc32)cn1 [Example 177, (S)-5-((4-(3-fluoro-4-(trifluoromethoxy)phenyl)-3,4-dihydro-2H-pyrano[3,2-b]pyridin-4-yl)carbamoyl) pyrazine-2-carboxylic acid] |
